Target: T1, EP2 receptor (Homo sapiens, UniProt P43116)
T1 construct: expressed in transfected cells; host or cells: CHO-K1 cells (ATCC), transient transfection with FuGENE 6
Assay: EP2 Potency Assay (cAMP TR-FRET, CHO-K1 cells transfected with EP2 receptor, PGE2 at EC80)
Type: cell-based
Settings: CHO-K1 cells expressing EP2, prostaglandin E2 at EC80, read-out: EP2 Potency (IC50 category)
Procedure: Compound potency was measured using a cAMP TR-FRET assay.
After 6 hours incubation, the cell media was replaced with F12 medium supplemented with 10% FBS and 100 U/ml Pen-Strep. 24 hours after transfection, cells were harvested and seeded at a density of 3000 cells/well in a 384 well plate to perform the cAMP assay, using the LANCE Ultra cAMP assay kit (PerkinElmer).
Plates were then centrifuged at 1000 rpm for 1 min, agitated at 600 rpm at R.T. for 2 min, and incubated at 25° C. for 5 min. The reference agonist, prostaglandin E2 (MCE), was added to each well at the appropriate concentration to reach its EC80 value. Plates were then centrifuged at 1000 rpm for 1 min, agitated at 600 rpm at R.T. for 2 min, and incubated at 25° C. for 30 min.
A dose-response curve was prepared by plotting percent inhibition for each compound concentration, and then IC50 was calculated by fitting a curve to the plotted values and extrapolating the IC50 concentration.

T1 sequence (P43116 whole entry): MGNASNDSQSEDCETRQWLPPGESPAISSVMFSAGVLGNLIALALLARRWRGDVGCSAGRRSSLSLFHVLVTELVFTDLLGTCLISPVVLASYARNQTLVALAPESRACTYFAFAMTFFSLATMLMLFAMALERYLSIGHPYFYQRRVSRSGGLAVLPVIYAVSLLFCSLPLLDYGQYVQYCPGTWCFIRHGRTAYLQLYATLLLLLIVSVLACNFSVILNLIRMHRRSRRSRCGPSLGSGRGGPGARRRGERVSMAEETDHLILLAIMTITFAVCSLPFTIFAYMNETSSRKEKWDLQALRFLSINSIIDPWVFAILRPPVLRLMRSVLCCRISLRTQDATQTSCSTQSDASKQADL

| SMILES | IC50 [µM] |
| --- | --- |
| Fc1ccc2c(ccn2-c2cc(Cl)c3c(c2)CN(Cc2cccs2)CCO3)c1 [Compound 91] | > 5 |
| COc1ncc(CN2CCOc3c(Cl)cc(-n4ccc5cc(F)c(Cl)cc54)cc3C2)cn1 [Compound 28] | > 5 |
| Cc1c(-n2ccc3cc(F)ccc32)cc(Cl)c2c1CN(Cc1cc[nH]c(=O)c1)CCO2 [Compound 238] | 1 to 5 |
| Fc1ccc2c(ccn2-c2cc(Cl)c3c(c2)CN(Cc2ncon2)CCO3)c1 [Compound 110] | > 5 |
| COc1nccc(CN2Cc3cc(-n4ccc5cc(F)ccc54)cc(Cl)c3OC[C@H]2C)n1 [Compound 10] | 0.5 to 1 |
| Fc1ccc2c(ccn2-c2cc(Cl)c3c(c2)CN(Cc2cnc[nH]2)CCO3)c1 [Compound 107] | > 5 |
| O=C1NN=CC1CN1CCOc2c(Cl)cc(-n3ccc4cc(F)ccc43)cc2C1 (centres unmarked) [Compound 199] | 1 to 5 |
| O=c1ncc(CN2CCOc3c(Cl)cc(-c4cccc5ccccc45)cc3C2)c[nH]1 [Compound 82] | 1 to 5 |
| COc1ncc(CN2CCOc3c(Cl)cc(-n4ccc5cnccc54)cc3C2)cn1 [Compound 36] | > 5 |
| Cn1ccc(CN2CCOc3c(Cl)cc(-n4ccc5cc(F)ccc54)cc3C2)n1 [Compound 102] | > 5 |
| Fc1ccc2c(ccn2-c2cc(Cl)c3c(c2)CN(Cc2cn[nH]c2)CCO3)c1 [Compound 103, 4-((1H-pyrazol-4-yl)methyl)-9-chloro-7-(5-fluoro-1H-indol-1-yl)-2,3,4,5-tetrahydrobenzo[f][1,4]oxazepane] | 1 to 5 |
| CC(C)(C)OC(=O)n1cccc1CN1CCOc2c(Cl)cc(-n3ccc4cc(F)ccc43)cc2C1 [Compound 88] | > 5 |
| COc1ncc(CN2CCOc3c(Cl)cc(-n4ccc5cc(F)c(F)cc54)cc3C2)cn1 [Compound 24] | 1 to 5 |
| Fc1ccc2c(ccn2-c2cc(Cl)c3c(c2)CN(Cc2ccccc2C(F)F)CCO3)c1 [Compound 122, 9-chloro-4-(2-(difluoromethyl)benzyl)-7-(5-fluoro-1H-indol-1-yl)-2,3,4,5-tetrahydrobenzo[f][1,4]oxazepane] | > 5 |
| COc1ncc(CN2CCOc3c(Cl)cc(-n4ccc5cc(Cl)ccc54)cc3C2)cn1 [Compound 20] | 0.5 to 1 |
| [2H]C1([2H])c2cc(-n3ccc4cc(F)ccc43)cc(Cl)c2OC([2H])([2H])C([2H])([2H])N1Cc1cc[nH]c(=O)c1 [Compound 225] | 0.1 to 0.5 |
| O=c1ncc(CN2CCOc3c(Cl)cc(-n4ccc5ccncc54)cc3C2)c[nH]1 [Compound 71] | > 5 |
| O=c1cc(CN2CCOc3c(Cl)cc(-n4ccc5cc(F)ccc54)cc32)cc[nH]1 [Compound 241] | > 5 |
| NCc1ncc(CN2CCOc3c(Cl)cc(-n4ccc5cc(F)ccc54)cc3C2)cn1 [Compound 139, 1-(5-{[9-chloro-7-(5-fluoroindol-1-yl)-3,5-dihydro-2H-1,4-benzoxazepin-4-yl]methyl}pyrimidin-2-yl)methanamine] | 0.1 to 0.5 |

| SMILES | IC50 [µM] |
| --- | --- |
| Fc1ccc2c(ccn2-c2cc(Cl)c3c(c2)CN(Cc2ccnc(C4CNC4)c2)CCO3)c1 [Compound 188, 4-{[2-(azetidin-3-yl)pyridin-4-yl]methyl}-9-chloro-7-(5-fluoroindol-1-yl)-3,5-dihydro-2H-1,4-benzoxazepine; trifluoroacetic acid] | > 5 |
| O=c1ncc(CN2CCOc3c(Cl)cc(-n4ccc5c(F)c(F)ccc54)cc3C2)c[nH]1 [Compound 64] | < 0.1 |
| Fc1ccc2c(ccn2-c2cc(Cl)c3c(c2)CN(Cc2cncs2)CCO3)c1 [Compound 99] | 0.5 to 1 |
| CC(C)(C)OC(=O)Nc1ccc(CN2CCOc3c(Cl)cc(-n4ccc5cc(F)ccc54)cc3C2)nn1 [Compound 168] | > 5 |
| Fc1ccc2c(ccn2-c2cc(Cl)c3c(c2)CN(Cc2ccc[nH]2)CCO3)c1 [Compound 87] | > 5 |
| O=c1ncc(CN2CCOc3c(Cl)cc(-n4ccc5cnccc54)cc3C2)c[nH]1 [Compound 73] | > 5 |
| O=c1[nH]ccc(CN2CCOc3c(Cl)cc(-n4ccc5cc(F)ccc54)cc3C2)c1C(F)(F)F [Compound 195] | > 5 |
| CN(C)C(=O)[C@H]1CC[C@@H](CN2CCOc3c(Cl)cc(-n4ccc5cc(F)ccc54)cc3C2)CC1 [Compound 129] | 1 to 5 |
| COc1cc(C(C)N2CCOc3c(Cl)cc(-n4ccc5cc(F)ccc54)cc3C2)ccn1 (racemic) [Compound 217, 9-chloro-7-(5-fluoroindol-1-yl)-4-[1-(2-methoxypyridin-4-yl)ethyl]-3,5-dihydro-2H-1,4-benzoxazepine] | > 5 |
| COc1ncc(CN2CCOc3c(Cl)cc(-n4ccc5cc(C(F)(F)F)ccc54)cc3C2)cn1 [Compound 15] | > 5 |
| Cc1cc2cc(F)ccc2n1-c1cc(Cl)c2c(c1)CN(Cc1cnc(=O)[nH]c1)CCO2 [Compound 66] | 1 to 5 |
| Fc1ccc2c(ccn2-c2cc(Cl)c3c(c2)CN(Cc2ccoc2)CCO3)c1 [Compound 90] | > 5 |
| O=c1ncc(CN2CCOc3c(Cl)cc(N4CCOc5cc(F)ccc54)cc3C2)c[nH]1 [Compound 81] | 1 to 5 |
| COc1ccc2c(ccn2-c2cc(Cl)c3c(c2)CN(Cc2cnc(OC)nc2)CCO3)c1 [Compound 19] | > 5 |
| N#Cc1ccc2c(ccn2-c2cc(Cl)c3c(c2)CN(Cc2cnc(=O)[nH]c2)CCO3)c1 [Compound 59] | 1 to 5 |
| O=c1cc(CN2Cc3cc(-n4ccc5cc(F)ccc54)cc(Cl)c3OCC23COC3)cc[nH]1 [Compound 229] | > 5 |
| COc1ncc(CN2CCOc3c(Cl)cc(N4Cc5ccc(F)cc5C4)cc3C2)cn1 [Compound 47, 9-chloro-7-(5-fluoro-1,3-dihydroisoindol-2-yl)-4-[(2-methoxypyrimidin-5-yl)methyl]-3,5-dihydro-2H-1,4-benzoxazepine] | 1 to 5 |
| Fc1ccc2c(ccn2-c2cc(Cl)c3c(c2)CN(Cc2cnsn2)CCO3)c1 [Compound 113] | 1 to 5 |
| COc1ncc(CN2CCOc3c(Cl)cc(-n4cc(C)c5cc(F)ccc54)cc3C2)cn1 [Compound 31] | 0.5 to 1 |

| SMILES | IC50 [µM] |
| --- | --- |
| O=c1ncc(CN2CCOc3c(Cl)cc(-n4ccc5ncccc54)cc3C2)c[nH]1 [Compound 68] | 0.5 to 1 |
| COc1ncc(CN2CCOc3c(Cl)cc(-n4ccc5cccnc54)cc3C2)cn1 [Compound 32] | 1 to 5 |
| Fc1ccc2c(ccn2-c2cc(Cl)c3c(c2)CN(Cc2cocn2)CCO3)c1 [Compound 95] | > 5 |
| O=c1ncc(CN2CCOc3c(Cl)cc(-n4ccc5cc(F)cnc54)cc3C2)c[nH]1 [Compound 70, 5-((9-chloro-7-(5-fluoro-1H-pyrrolo[2,3-b]pyridin-1-yl)-2,3-dihydrobenzo[f][1,4]oxazepin-4(5H)-yl)methyl)pyrimidin-2(1H)-one] | 1 to 5 |
| COc1ncc(CN2CCOc3c(Cl)cc(-n4ccc5cc(Cl)ncc54)cc3C2)cn1 [Compound 35] | > 5 |
| N#Cc1cccc(CN2Cc3cc(-n4ccc5cc(F)ccc54)cc(Cl)c3OCC23CC3)c1 [Compound 220] | > 5 |
| COc1ncc(CN2CCOc3c(Cl)cc(-c4ncc5ccccn45)cc3C2)cn1 [Compound 40, 9-chloro-7-{imidazo[1,5-a]pyridin-3-yl}-4-[(2-methoxypyrimidin-5-yl)methyl]-3,5-dihydro-2H-1,4-benzoxazepine] | 1 to 5 |
| COC(=O)c1ncc(CN2CCOc3c(Cl)cc(-n4ccc5cc(F)ccc54)cc3C2)cn1 [Compound 145, Methyl 5-{[9-chloro-7-(5-fluoroindol-1-yl)-3,5-dihydro-2H-1,4-benzoxazepin-4-yl]methyl}pyrimidine-2-carboxylate] | < 0.1 |
| O=c1cc(CN2CCc3c(Cl)cc(-n4ccc5cc(F)ccc54)cc3C2)cc[nH]1 [Compound 240] | > 5 |
| COc1ncc(CN2CCOc3c(Cl)cc(-c4cccc5nccn45)cc3C2)cn1 [Compound 39] | 1 to 5 |
| COc1ncc(CN2CCOc3c(Cl)cc(N4CCc5cc(F)ccc54)cc3C2)cn1 [Compound 45, 9-chloro-7-(5-fluoro-2,3-dihydroindol-1-yl)-4-[(2-methoxypyrimidin-5-yl)methyl]-3,5-dihydro-2H-1,4-benzoxazepine] | 0.5 to 1 |
| O=c1ncc(CN2CCOc3c(Cl)cc(N4CCc5cc(F)ccc54)cc3C2)c[nH]1 [Compound 78] | 0.1 to 0.5 |
| O=c1ncc(CN2CCOc3c(Cl)cc(-n4ccc5cc(C(F)(F)F)ccc54)cc3C2)c[nH]1 [Compound 60] | 1 to 5 |
| CNc1cc(CN2CCOc3c(Cl)cc(-n4ccc5cc(F)ccc54)cc3C2)ccn1 [Compound 180, 4-{[9-chloro-7-(5-fluoroindol-1-yl)-3,5-dihydro-2H-1,4-benzoxazepin-4-yl]methyl}-N-methylpyridin-2-amine] | 1 to 5 |
| COc1n[nH]cc1CN1CCOc2c(Cl)cc(-n3ccc4cc(F)ccc43)cc2C1 [Compound 105, 9-chloro-7-(5-fluoroindol-1-yl)-4-[(3-methoxy-1H-pyrazol-4-yl)methyl]-3,5-dihydro-2H-1,4-benzoxazepine] | > 5 |
| COc1ncc(CN2CCOc3c(Cl)cc(-c4ncc5cc(Cl)ccn45)cc3C2)cn1 [Compound 41, 9-chloro-7-{7-chloroimidazo[1,5-a]pyridin-3-yl}-4-[(2-methoxypyrimidin-5-yl)methyl]-3,5-dihydro-2H-1,4-benzoxazepine] | 0.5 to 1 |
| COc1ncc(CN2CCOc3c(Cl)cc(-n4ccc5nccnc54)cc3C2)cn1 [Compound 43] | > 5 |
| Fc1ccc2c(ccn2-c2cc(Cl)c3c(c2)CN(Cc2nnco2)CCO3)c1 [Compound 111, 9-chloro-7-(5-fluoroindol-1-yl)-4-(1,3,4-oxadiazol-2-ylmethyl)-3,5-dihydro-2H-1,4-benzoxazepine] | 1 to 5 |

Reference: patent US12624024B2, “EP2 antagonist compounds” (Reservoir Neuroscience, Inc., priority 2021, dated 2026)
